Test: HPLC retention times (reverse phase) as a measure of hydrophilicity
Format: physicochemical
Details: reverse phase C18 3.5 μm 4.6×75 mm; 45° C.; flow 1.0 mL/min; isocratic 40:60 v/v H2O:MeOH; shorter retention times correspond to higher hydrophilicity
Protocol: HPLC Retention Times [min] for Compounds According to the Invention
HPLC Conditions: Waters's SYMMETRY® HPLC column system (C18 3.5 μm 4.6×75 mm); T: 45° C.; flow 1.0 mL/min; isocratic eluent conditions 40:60 v/v/H2O:MeOH. Injection volume: 100 μL.
Solvents used for eluent are of HPLC grade, water filtered through a Millipore apparatus; all solvents were filtered through a 0.45 μm Millipore filter and degassed by N2 stream prior use.
Since the analyses are carried in reverse phase, shorter retention times correspond to higher hydrophilicity.

Compound: C#C[C@@]1(O)CC[C@@]2(C)[C@@H](CC[C@@H]3[C@@H]2CC[C@]2(C)[C@@H](/C(C)=N/O)CC[C@@H]32)C1 [UC 2026, 3β-ethynyl, 3α-hydroxyl, 5α-pregnan-20-one oxime]
- retention time: 16.9 min

Compound: C#C[C@@]1(O)CC[C@@]2(C)C(CC[C@@H]3[C@@H]2CC[C@]2(C)/C(=N\O)CC[C@@H]32)C1 (stereo partly drawn) [UC 2025, 3β-ethynyl, 3α-hydroxyl, androstan-17-one oxime]
- retention time: 13.9 min

Compound: C#C[C@@]1(O)CC[C@@]2(C)[C@@H](CC[C@@H]3[C@@H]2CC[C@]2(C)C(=O)CC[C@@H]32)C1 [UC 2021, 3β-ethynyl, 3α-hydroxyl, androstan-17-one]
- retention time: 7.8 min

Compound: CC(=O)[C@H]1CC[C@H]2[C@@H]3CC[C@@H]4C[C@@H](O)CC[C@]4(C)[C@H]3CC[C@]12C [3β-5β-pregnan-20-one, reference compound]
- retention time: 24.4 min

Compound: C#C[C@]1(O)C=C2CCC3C(CC[C@@]4(C)C3CC[C@@H]4C(C)=O)[C@@]2(C)CC1 (stereo partly drawn) [UC 2024, 3β-ethynyl, 3α-hydroxyl, Δ4-pregnen-20-one]
- retention time: 14.0 min

Compound: CC(=O)[C@H]1CC[C@H]2[C@@H]3CC[C@H]4C[C@@H](O)CC[C@]4(C)[C@H]3CC[C@]12C [3β-5α-pregnan-20-one, reference compound]
- retention time: 30.0 min

— patent US8853190B2, “Steroids having increased water solubility and resistance against metabolism, and methods for their production” (Umecrine AB, priority 2006, dated 2014)
